In the SangsterLogP compilation:

Assay: method code SF-AS, from DOI: 10.1139/v66-154

Row | Structure (SMILES) | logP
1 | O=[N+]([O-])/C=C/c1ccc([N+](=O)[O-])cc1 | 1.89
2 | COc1cccc(/C=C/[N+](=O)[O-])c1 | 2.3
3 | C/C(=C\c1ccccc1)[N+](=O)[O-] | 2.52
4 | O=[N+]([O-])C=Cc1cccc(O)c1 | 2.07
5 | O=[N+]([O-])/C=C/c1ccccc1Cl | 2.85
6 | O=C1C=CC(=O)c2ccccc21 | 1.71
7 | CN(C)c1ccc(/C=C/[N+](=O)[O-])cc1 | 2.67
8 | O=[N+]([O-])/C=C/c1cccc(Cl)c1 | 2.57
9 | O=[N+]([O-])C=Cc1ccccc1 | 2.11
10 | O=[N+]([O-])/C=C/c1cccc([N+](=O)[O-])c1 | 1.82
11 | O=[N+]([O-])/C=C/c1ccc(Cl)cc1 | 2.44
12 | O=[N+]([O-])/C=C/c1ccc(O)cc1 | 2.12
13 | O=[N+]([O-])/C=C/c1ccccc1[N+](=O)[O-] | 1.8
14 | O=[N+]([O-])C=Cc1cc([N+](=O)[O-])ccc1Cl | 2.23
15 | COc1cc(C=C[N+](=O)[O-])ccc1O | 1.88

Next, values leading:

Row | logP | Structure (SMILES)
16 | 1.29 | CC(=O)NC1=CC(=O)c2ccccc2C1=O
17 | 4.4 | O=C1C=C(c2ccccc2)C(=O)c2ccccc21
18 | 2.1 | Cc1ccc2c(c1)C(=O)C=CC2=O
19 | 3.11 | CCCCNC1=CC(=O)c2ccccc2C1=O
20 | 2.15 | O=C1C=C(Cl)C(=O)c2ccccc21
21 | 4.26 | CCCCNC1=C(Cl)C(=O)c2ccccc2C1=O
22 | 2.07 | CCCCSC1=C(NC(C)=O)C(=O)c2ccccc2C1=O
23 | 3.29 | CCCCSC1=CC(=O)c2ccccc2C1=O
24 | 2.49 | Cc1cc2c(cc1C)C(=O)C=CC2=O
25 | 4.22 | O=C1C(Cl)=C(Nc2ccccc2)C(=O)c2ccccc21
26 | 2.14 | O=C1C=C(S(=O)(=O)c2ccccc2)C(=O)c2ccccc21
27 | 2.84 | O=C1C=C(Nc2ccccc2)C(=O)c2ccccc21
28 | 1.35 | COC1=CC(=O)c2ccccc2C1=O
29 | 2.14 | COC1=C(C)C(=O)c2ccccc2C1=O
30 | 1.73 | CC(=O)NC1=C(Nc2ccccc2)C(=O)c2ccccc2C1=O
31 | 3.38 | O=C1C(Nc2ccccc2)=C(S(=O)(=O)c2ccccc2)C(=O)c2ccccc21
32 | 1.2 | CC1=C(O)c2ccccc2C(=O)C1=O
